# Laboratory results taken from the supplement of paper PMC10307832.
# Key:
# Test in all cases: relative viability (nuclei count vs DMSO), 5 days (fraction); higher = more cells survive
# FG-4592 + Crizotinib = compound: Cc1nc(C(=O)NCC(=O)O)c(O)c2ccc(Oc3ccccc3)cc12 [FG-4592] + C[C@@H](Oc1cc(-c2cnn(C3CCNCC3)c2)cnc1N)c1c(Cl)ccc(F)c1Cl [Crizotinib] (partner 1 µM)
# Outline: (§1)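 Relative viability was taken as the ratio of nuclei in treated wells to nuclei in vehicle wells. Lung cancer cell lines in 1536-well plates received compounds by pin tool one day after seeding, either one drug alone or a fixed anchor-drug dose plus five library-drug doses (not always all listed) in √10 steps. Nuclei were counted on 4× images after 5 days of treatment, and values are medians of duplicate plates.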
# FG-4592 + Decitabine = compound: Cc1nc(C(=O)NCC(=O)O)c(O)c2ccc(Oc3ccccc3)cc12 [FG-4592] + Nc1ncn([C@H]2C[C@H](O)[C@@H](CO)O2)c(=O)n1 [Decitabine] (partner 2 µM)
# Outline: as §1
# IU1-47 + Palbociclib = compound: CC1=CC(=C(N1C2=CC=C(C=C2)Cl)C)C(=O)CN3CCCCC3 [IU1-47] + CC(=O)c1c(C)c2cnc(Nc3ccc(N4CCNCC4)cn3)nc2n(C2CCCC2)c1=O [Palbociclib] (partner 0.5 µM)
# Outline: as §1
# IU1-47 + AZD7762 = compound: CC1=CC(=C(N1C2=CC=C(C=C2)Cl)C)C(=O)CN3CCCCC3 [IU1-47] + NC(=O)Nc1cc(-c2cccc(F)c2)sc1C(=O)N[C@H]1CCCNC1 [AZD7762] (partner 0.2 µM)
# Outline: as §1
cell line,measurement,setting,value
NCI-H1355,relative viability,FG-4592 + Crizotinib; first compound 0.08 µM,1.05
same,relative viability,FG-4592 + Crizotinib; first compound 0.253 µM,1.02
same,relative viability,FG-4592 + Crizotinib; first compound 2.53 µM,1.07
same,relative viability,FG-4592 + Crizotinib; first compound 8 µM,0.944
same,relative viability,FG-4592 + Decitabine; first compound 0.08 µM,0.355
same,relative viability,FG-4592 + Decitabine; first compound 0.253 µM,0.297
same,relative viability,FG-4592 + Decitabine; first compound 2.53 µM,0.378
same,relative viability,FG-4592 + Decitabine; first compound 8 µM,0.307
same,relative viability,IU1-47 + Palbociclib; first compound 0.08 µM,0.422
same,relative viability,IU1-47 + Palbociclib; first compound 0.253 µM,0.414
same,relative viability,IU1-47 + Palbociclib; first compound 0.8 µM,0.41
same,relative viability,IU1-47 + Palbociclib; first compound 8 µM,0.37
same,relative viability,IU1-47 + AZD7762; first compound 0.08 µM,0.798
same,relative viability,IU1-47 + AZD7762; first compound 0.253 µM,0.957
same,relative viability,IU1-47 + AZD7762; first compound 0.8 µM,0.844
same,relative viability,IU1-47 + AZD7762; first compound 8 µM,0.584
HOP-62,relative viability,FG-4592 + Crizotinib; first compound 0.08 µM,0.981
same,relative viability,FG-4592 + Crizotinib; first compound 0.253 µM,0.89
same,relative viability,FG-4592 + Crizotinib; first compound 0.8 µM,1.01
same,relative viability,FG-4592 + Crizotinib; first compound 2.53 µM,0.922
same,relative viability,FG-4592 + Crizotinib; first compound 8 µM,0.654
same,relative viability,FG-4592 + Decitabine; first compound 0.08 µM,0.216
same,relative viability,FG-4592 + Decitabine; first compound 0.253 µM,0.219
same,relative viability,FG-4592 + Decitabine; first compound 0.8 µM,0.223
same,relative viability,FG-4592 + Decitabine; first compound 2.53 µM,0.199
same,relative viability,FG-4592 + Decitabine; first compound 8 µM,0.185
same,relative viability,IU1-47 + Palbociclib; first compound 0.08 µM,0.515
same,relative viability,IU1-47 + Palbociclib; first compound 0.253 µM,0.524
same,relative viability,IU1-47 + Palbociclib; first compound 0.8 µM,0.483
same,relative viability,IU1-47 + Palbociclib; first compound 2.53 µM,0.499
same,relative viability,IU1-47 + Palbociclib; first compound 8 µM,0.452
same,relative viability,IU1-47 + AZD7762; first compound 0.08 µM,0.488
same,relative viability,IU1-47 + AZD7762; first compound 0.253 µM,0.712
same,relative viability,IU1-47 + AZD7762; first compound 0.8 µM,0.619
same,relative viability,IU1-47 + AZD7762; first compound 2.53 µM,0.493
same,relative viability,IU1-47 + AZD7762; first compound 8 µM,0.608
NCI-H2085,relative viability,FG-4592 + Crizotinib; first compound 0.08 µM,0.852
same,relative viability,FG-4592 + Crizotinib; first compound 0.253 µM,0.871
same,relative viability,FG-4592 + Crizotinib; first compound 0.8 µM,0.928
same,relative viability,FG-4592 + Crizotinib; first compound 2.53 µM,1.03
same,relative viability,FG-4592 + Crizotinib; first compound 8 µM,0.742
same,relative viability,FG-4592 + Decitabine; first compound 0.08 µM,0.554
same,relative viability,FG-4592 + Decitabine; first compound 0.253 µM,0.493
same,relative viability,FG-4592 + Decitabine; first compound 0.8 µM,0.51
same,relative viability,FG-4592 + Decitabine; first compound 2.53 µM,0.597
same,relative viability,FG-4592 + Decitabine; first compound 8 µM,0.545
same,relative viability,IU1-47 + Palbociclib; first compound 0.08 µM,0.444
same,relative viability,IU1-47 + Palbociclib; first compound 0.253 µM,0.458
same,relative viability,IU1-47 + Palbociclib; first compound 0.8 µM,0.488
same,relative viability,IU1-47 + Palbociclib; first compound 2.53 µM,0.463
same,relative viability,IU1-47 + Palbociclib; first compound 8 µM,0.496
same,relative viability,IU1-47 + AZD7762; first compound 0.08 µM,0.983
same,relative viability,IU1-47 + AZD7762; first compound 0.253 µM,1.02
same,relative viability,IU1-47 + AZD7762; first compound 0.8 µM,0.997
same,relative viability,IU1-47 + AZD7762; first compound 2.53 µM,0.73
same,relative viability,IU1-47 + AZD7762; first compound 8 µM,1.02
